Results taken from patent US20240277713A1 (Kadmon Corporation, LLC, priority 2022, published 2024).
Marks after values point to notes of the source that are not given here.

Tested on: New Zealand White rabbits
Experiment: Embryo-fetal developmental toxicity study in New Zealand White rabbits (Example 4);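 further: dams given a detailed clinical exam daily GD 6 to 29, about 4 h after dosing, then laparohysterectomy on GD 29 with external, visceral and skeletal fetal examination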

CC(C)NC(=O)COc1cccc(-c2nc(Nc3ccc4[nH]ncc4c3)c3ccccc3n2)c1 [belumosudil, 2-{3-[4-(1H-indazol-5-ylamino)-2-quinazolinyl]phenoxy}-N-(propan-2-yl) acetamide]
Fetal External Malformation: Short Tail, No. Fetuses (incidence) (50 mg base/kg/day): 0 (0.0)
Fetal External Malformation: Short Tail, No. Litters (incidence) (50 mg base/kg/day): 0 (0.0)
Fetal External Malformations, No. Fetuses (incidence) (50 mg base/kg/day): 1 (0.5)
Fetal External Malformations, No. Litters (incidence) (50 mg base/kg/day): 1 (4.5)
Fetal Skeletal Malformations, No. Fetuses (incidence) (50 mg base/kg/day): 8 (4.3)
Fetal Skeletal Malformations, No. Litters (incidence) (50 mg base/kg/day): 6 (27.3)
Fetal Visceral Variations, No. Fetuses (incidence) (50 mg base/kg/day): 6 (3.2)
Fetal Visceral Variations, No. Litters (incidence) (50 mg base/kg/day): 4 (18.2)
Maternal Food Consumption GD 0-29 (50 mg base/kg/day): 141.1
Maternal Food Consumption GD 6-10 (50 mg base/kg/day): 149.4
Maternal Food Consumption GD 6-19 (50 mg base/kg/day): 142.7
Maternal Food Consumption GD 6-19, % Difference From Control (50 mg base/kg/day): −8.8%
Maternal Food Consumption GD 19-29 (50 mg base/kg/day): 136.0
Mean Fetal Body Weight Females (50 mg base/kg/day): 40.25 g
Mean Fetal Body Weight Genders Combined (50 mg base/kg/day): 40.97 g
Mean Fetal Body Weight Males (50 mg base/kg/day): 41.64 g
Mean Live Litter Size (50 mg base/kg/day): 8.5
Mean Number of Early Resorptions (50 mg base/kg/day): 0.2
Mean Number of Resorptions (Combined) (50 mg base/kg/day): 0.2
Mean Postimplantation Loss (50 mg base/kg/day): 2.42 %/Litter
Number Litters with Viable Fetuses GD29 (50 mg base/kg/day): 22
Number with All Resorptions GD29 (50 mg base/kg/day): 0
Number Aborted (50 mg base/kg/day, 23 females): 0
Number Litters with Viable Fetuses GD29 (50 mg base/kg/day, 23 females): 22
Number Not Pregnant (50 mg base/kg/day, 23 females): 1
Number with All Resorptions GD29 (50 mg base/kg/day, 23 females): 0
Activity decreased, times observed/animals affected (50 mg base/kg/day, GD 0-29): 0/0
Feces few/absent, times observed/animals affected (50 mg base/kg/day, GD 0-29): 0/0
Hair discolored, Brown, Anogenital region, times observed/animals affected (50 mg base/kg/day, GD 0-29): 0/0
Hair discolored, Brown, Ear/left, times observed/animals affected (50 mg base/kg/day, GD 0-29): 12/1
Hair discolored, Brown, Ear/right, times observed/animals affected (50 mg base/kg/day, GD 0-29): 12/1
Hair discolored, Brown, Face, times observed/animals affected (50 mg base/kg/day, GD 0-29): 24/3
Hair discolored, Brown, Hind limb/left, times observed/animals affected (50 mg base/kg/day, GD 0-29): 3/1
Hair discolored, Red, Anogenital region, times observed/animals affected (50 mg base/kg/day, GD 0-29): 0/0
Hair discolored, Red, Face, times observed/animals affected (50 mg base/kg/day, GD 0-29): 0/0
Hair discolored, Red, Forelimb/left, times observed/animals affected (50 mg base/kg/day, GD 0-29): 1/1
Hair discolored, Red, Thoracic region, times observed/animals affected (50 mg base/kg/day, GD 0-29): 1/1
Hair discolored, Yellow, Ear/right, times observed/animals affected (50 mg base/kg/day, GD 0-29): 0/0
Hair discolored, Yellow, Face, times observed/animals affected (50 mg base/kg/day, GD 0-29): 27/2
Hair sparse, Anogenital region, times observed/animals affected (50 mg base/kg/day, GD 0-29): 0/0
Hair sparse, Axillary region/left, times observed/animals affected (50 mg base/kg/day, GD 0-29): 0/0
Hair sparse, Axillary region/right, times observed/animals affected (50 mg base/kg/day, GD 0-29): 0/0
Hair sparse, Cervical region, times observed/animals affected (50 mg base/kg/day, GD 0-29): 0/0
Hair sparse, Ear/left, times observed/animals affected (50 mg base/kg/day, GD 0-29): 0/0
Hair sparse, Ear/right, times observed/animals affected (50 mg base/kg/day, GD 0-29): 0/0
Hair sparse, Forefoot/left, times observed/animals affected (50 mg base/kg/day, GD 0-29): 5/1
Hair sparse, Forefoot/right, times observed/animals affected (50 mg base/kg/day, GD 0-29): 4/1
Hair sparse, Forelimb/left, times observed/animals affected (50 mg base/kg/day, GD 0-29): 5/1
Hair sparse, Hind limb/left, times observed/animals affected (50 mg base/kg/day, GD 0-29): 5/1
Hair sparse, Inguinal region/right, times observed/animals affected (50 mg base/kg/day, GD 0-29): 0/0
Hair sparse, Shoulder/left, times observed/animals affected (50 mg base/kg/day, GD 0-29): 0/0
Hair sparse, Thoracic region, times observed/animals affected (50 mg base/kg/day, GD 0-29): 0/0
Hair sparse, Ventral surface, times observed/animals affected (50 mg base/kg/day, GD 0-29): 0/0
Material in pan/bedding, Red, times observed/animals affected (50 mg base/kg/day, GD 0-29): 0/0
Nail missing, Forefoot/left, times observed/animals affected (50 mg base/kg/day, GD 0-29): 1/1
Scabbed area, Ear/left, times observed/animals affected (50 mg base/kg/day, GD 0-29): 0/0
Scabbed area, Nose/muzzle, times observed/animals affected (50 mg base/kg/day, GD 0-29): 0/0
Skin discolored, Pale, Entire body, times observed/animals affected (50 mg base/kg/day, GD 0-29): 0/0
Swelling, Nose/muzzle, times observed/animals affected (50 mg base/kg/day, GD 0-29): 0/0
Swelling, Vulva, times observed/animals affected (50 mg base/kg/day, GD 0-29): 3/1
Thin, times observed/animals affected (50 mg base/kg/day, GD 0-29): 0/0
Fetal External Malformation: Short Tail, No. Fetuses (incidence) (125 mg base/kg/day): 0 (0.0)
Fetal External Malformation: Short Tail, No. Litters (incidence) (125 mg base/kg/day): 0 (0.0)
Fetal External Malformations, No. Fetuses (incidence) (125 mg base/kg/day): 0 (0.0)
Fetal External Malformations, No. Litters (incidence) (125 mg base/kg/day): 0 (0.0)
Fetal Skeletal Malformations, No. Fetuses (incidence) (125 mg base/kg/day): 10 (6.6)
Fetal Skeletal Malformations, No. Litters (incidence) (125 mg base/kg/day): 6 (31.6)
Fetal Visceral Variations, No. Fetuses (incidence) (125 mg base/kg/day): 11 (7.2)
Fetal Visceral Variations, No. Litters (incidence) (125 mg base/kg/day): 7 (36.8)
Maternal Body Weight Change GD 0-29, % Difference From Control (125 mg base/kg/day): −8.6%
Maternal Body Weight GD 19, % Difference From Control (125 mg base/kg/day): −5.1%
Maternal Food Consumption GD 0-29 (125 mg base/kg/day): 128.8
Maternal Food Consumption GD 0-29, % Difference From Control (125 mg base/kg/day): −11.6%
Maternal Food Consumption GD 6-10 (125 mg base/kg/day): 117.9^b
Maternal Food Consumption GD 6-19 (125 mg base/kg/day): 103.1
Maternal Food Consumption GD 6-19, % Difference From Control (125 mg base/kg/day): −34.1%
Maternal Food Consumption GD 19-29 (125 mg base/kg/day): 149.9^a
Mean Fetal Body Weight Females (125 mg base/kg/day): 41.14 g
Mean Fetal Body Weight Genders Combined (125 mg base/kg/day): 41.09 g
Mean Fetal Body Weight Males (125 mg base/kg/day): 41.61 g
Mean Live Litter Size (125 mg base/kg/day): 8.0
Mean Number of Early Resorptions (125 mg base/kg/day): 0.5
Mean Number of Resorptions (Combined) (125 mg base/kg/day): 0.7
Mean Postimplantation Loss (125 mg base/kg/day): 7.42 %/Litter
Number Litters with Viable Fetuses GD29 (125 mg base/kg/day): 19
Number with All Resorptions GD29 (125 mg base/kg/day): 0
ureter malpositioned, litter incidence (125 mg base/kg/day): 21.1%
Number Aborted (125 mg base/kg/day, 23 females): 1
Number Litters with Viable Fetuses GD29 (125 mg base/kg/day, 23 females): 19
Number Not Pregnant (125 mg base/kg/day, 23 females): 3
Number with All Resorptions GD29 (125 mg base/kg/day, 23 females): 0
Activity decreased, times observed/animals affected (125 mg base/kg/day, GD 0-29): 0/0
Feces few/absent, times observed/animals affected (125 mg base/kg/day, GD 0-29): 0/0
Hair discolored, Brown, Anogenital region, times observed/animals affected (125 mg base/kg/day, GD 0-29): 7/1
Hair discolored, Brown, Ear/left, times observed/animals affected (125 mg base/kg/day, GD 0-29): 0/0
Hair discolored, Brown, Ear/right, times observed/animals affected (125 mg base/kg/day, GD 0-29): 0/0
Hair discolored, Brown, Face, times observed/animals affected (125 mg base/kg/day, GD 0-29): 0/0
Hair discolored, Brown, Hind limb/left, times observed/animals affected (125 mg base/kg/day, GD 0-29): 0/0
Hair discolored, Red, Anogenital region, times observed/animals affected (125 mg base/kg/day, GD 0-29): 1/1
Hair discolored, Red, Face, times observed/animals affected (125 mg base/kg/day, GD 0-29): 2/1
Hair discolored, Red, Forelimb/left, times observed/animals affected (125 mg base/kg/day, GD 0-29): 0/0
Hair discolored, Red, Thoracic region, times observed/animals affected (125 mg base/kg/day, GD 0-29): 0/0
Hair discolored, Yellow, Ear/right, times observed/animals affected (125 mg base/kg/day, GD 0-29): 0/0
Hair discolored, Yellow, Face, times observed/animals affected (125 mg base/kg/day, GD 0-29): 10/1
Hair sparse, Anogenital region, times observed/animals affected (125 mg base/kg/day, GD 0-29): 15/2
Hair sparse, Axillary region/left, times observed/animals affected (125 mg base/kg/day, GD 0-29): 2/1
Hair sparse, Axillary region/right, times observed/animals affected (125 mg base/kg/day, GD 0-29): 2/1
Hair sparse, Cervical region, times observed/animals affected (125 mg base/kg/day, GD 0-29): 1/1
Hair sparse, Ear/left, times observed/animals affected (125 mg base/kg/day, GD 0-29): 0/0
Hair sparse, Ear/right, times observed/animals affected (125 mg base/kg/day, GD 0-29): 0/0
Hair sparse, Forefoot/left, times observed/animals affected (125 mg base/kg/day, GD 0-29): 0/0
